The values that follow come from the PolyMetriX glass transition set.

Regarding `*C(=O)Nc1ccc(C(=O)Nc2ccc(NC(=O)c3ccc4[nH]c(-c5ccc(-c6nc7cc(*)ccc7[nH]6)cc5)nc4c3)cc2)cc1` (repeat unit), the glass transition temperature was determined as 300.00 °C.
With `*C(=O)Nc1ccc(C(=O)Nc2ccc(NC(=O)c3ccc4[nH]c(-c5cccc(-c6nc7cc(*)ccc7[nH]6)c5)nc4c3)cc2)cc1` (repeat unit) the figure was 322.00 °C; with `*C(=O)Nc1ccc(Cc2ccc(NC(=O)c3ccc4c(c3)C(=O)N(c3ccc(NC(=O)Nc5ccc(N6C(=O)c7ccc(*)cc7C6=O)cc5)cc3)C4=O)cc2)cc1` (repeat unit), 211.00 °C; with `*C(=O)Nc1ccc(Cc2ccc(NC(=O)c3ccc4c(c3)C(=O)N(c3ccc(Oc5ccc(N6C(=O)c7ccc(*)cc7C6=O)cc5)cc3)C4=O)cc2)cc1` (repeat unit), 270.00 °C.
Then `*C(=O)Nc1ccc(Cc2ccc(NC(=O)c3ccc4c(c3)C(=O)N(c3ccc(S(=O)(=O)c5ccc(N6C(=O)c7ccc(*)cc7C6=O)cc5)cc3)C4=O)cc2)cc1` (repeat unit), with 324.00 °C.
With `*C(=O)Nc1ccc(NC(=O)Nc2ccc(NC(=O)c3ccc4c(c3)C(=O)N(c3ccc(NC(=O)Nc5ccc(N6C(=O)c7ccc(*)cc7C6=O)cc5)cc3)C4=O)cc2)cc1` (repeat unit) the figure was 208.00 °C.
With `*C(=O)Nc1ccc(NC(=O)c2ccc(N3C(=O)c4ccc(*)cc4C3=O)cc2)cc1` (repeat unit), the glass transition temperature is 297.50 °C.
Then `*C(=O)Nc1ccc(NC(=O)c2ccc(NC(=O)c3ccc(-c4nc5cc(*)ccc5[nH]4)cc3)cc2)cc1` (repeat unit), with 295.00 °C; and `*C(=O)Nc1ccc(NC(=O)c2ccc3c(c2)C(=O)N(c2ccc(-c4sc(-c5ccc(N6C(=O)c7ccc(*)cc7C6=O)cc5)c(-c5ccccc5)c4-c4ccccc4)cc2)C3=O)cc1` (repeat unit), with 333.00 °C; and `*C(=O)Nc1ccc(NC(=O)c2ccc3c(c2)C(=O)N(c2ccc(S(=O)(=O)c4ccc(N5C(=O)c6ccc(*)cc6C5=O)cc4)cc2)C3=O)cc1` (repeat unit), with 368.00 °C.
Then `*C(=O)Nc1ccc(Oc2ccc(-c3ccc(Oc4ccc(NC(=O)c5ccc6c(c5)C(=O)N(c5ccc(Oc7ccc(N8C(=O)c9ccc(*)cc9C8=O)cc7)cc5)C6=O)cc4)cc3)cc2)cc1` (repeat unit), with 262.00 °C.
With `*C(=O)Nc1ccc(Oc2ccc(C(=O)c3ccc(Oc4ccc(NC(=O)c5ccc(*)nc5)cc4)cc3)cc2)cc1` (repeat unit) the figure was 170.00 °C; with `*C(=O)Nc1ccc(Oc2ccc(C(c3ccc(Oc4ccc(NC(=O)c5ccc6c(c5)C(=O)N(c5ccc(Oc7ccc8ccc(Oc9ccc(N%10C(=O)c%11ccc(*)cc%11C%10=O)cc9)cc8c7)cc5)C6=O)cc4)cc3)(C(F)(F)F)C(F)(F)F)cc2)cc1` (repeat unit), 250.00 °C.
For `*C(=O)c1ccc(C(=O)N2CC(C)N(*)CC2C)cc1` (repeat unit), the glass transition temperature was 350.00 °C.
Then `*C(=O)c1ccc2c(c1)C(=O)N(c1ccc(C(=O)Nc3ccc(N4C(=O)c5ccc(*)cc5C4=O)cc3)cc1)C2=O` (repeat unit), with 300.00 °C; and `*C(=O)c1ccc2c(c1)C(=O)N(c1ccc(NC(=O)c3cccc(C(=O)Nc4ccc(N5C(=O)c6ccc(*)cc6C5=O)cc4)c3)cc1)C2=O` (repeat unit), with 247.00 °C; and `*C(=O)c1ccc2c(c1)C(=O)N(c1cccc(C(=O)Nc3ccc(N4C(=O)c5ccc(*)cc5C4=O)cc3)c1)C2=O` (repeat unit), with 308.00 °C.
Take `*CCCCCCCCCCCCOC(=O)Nc1ccc(Cc2ccc(NC(=O)O*)cc2)cc1` (repeat unit): the glass transition temperature was 43.00 °C.
As to `*CCCCCCCOC(=O)Nc1ccc(Cc2ccc(NC(=O)O*)cc2)cc1` (repeat unit), the glass transition temperature stood at 84.00 °C.
With `*CCN(CCCCCCOc1ccc(/N=N/c2ccccc2)cc1)CCOC(=O)Nc1ccc(Cc2ccc(NC(=O)O*)cc2)cc1` (repeat unit) the figure was 44.00 °C; with `*CCN(CCCCCOc1ccc(/N=N/c2ccccc2)cc1)CCOC(=O)Nc1ccc(Cc2ccc(NC(=O)O*)cc2)cc1` (repeat unit), 59.60 °C; with `*CCOC(=O)Nc1ccc(Cc2ccc(NC(=O)OCCOc3ccc(C4(c5ccc(O*)cc5)c5ccccc5-c5ccccc54)cc3)cc2)cc1` (repeat unit), 152.00 °C.
In turn, `*CCOCCOCCOCCOC(=O)Nc1ccc(Cc2ccc(NC(=O)O*)cc2)cc1` (repeat unit) yielded a glass transition temperature of 37.00 °C.
With `*CCOCCOCCOc1ccc(NC(=O)c2cccc(C(=O)Nc3ccc(O*)cc3)c2)cc1` (repeat unit) the figure was 129.00 °C; with `*COC(=O)Nc1ccc(Cc2ccc(NC(=O)OCc3ccc(*)o3)cc2)cc1` (repeat unit), 81.00 °C; with `*Cc1cccc(COC(=O)Nc2ccc(Cc3ccc(NC(=O)O*)cc3)cc2)c1` (repeat unit), 106.00 °C.
As to `*Nc1ccc(Cc2ccc(NC(=O)c3cc(C(*)=O)cc(N4C(=O)C5CC=CCC5C4=O)c3)cc2)cc1` (repeat unit), the glass transition temperature is 286.00 °C.
In turn, `*Nc1ccc(NC(=O)c2cc(C(*)=O)cc(S(=O)(=O)c3ccccc3)c2)cc1` (repeat unit) came in with a glass transition temperature of 308.00 °C.
In the case of `*Nc1ccc(NC(=O)c2ccc(C(*)=O)cc2)cc1` (repeat unit), the glass transition temperature was determined as 295.00 °C.
With `*Nc1ccc(NC(=O)c2ccc(C(=O)c3ccc(C(*)=O)c(C(=O)OCC)c3)cc2C(=O)OCC)cc1` (repeat unit) the figure was 275.00 °C.
Then `*Nc1ccc(NC(=O)c2ccc(NC(=O)c3cc(NC(=O)C45CC6CC(CC(C6)C4)C5)cc(C(*)=O)c3)cc2)cc1` (repeat unit), with 365.00 °C; and `*OC(c1ccco1)C(OC(=O)Nc1ccc(Cc2ccc(NC(*)=O)cc2)cc1)c1ccco1` (repeat unit), with 74.00 °C; and `*Oc1ccc(/N=C/CCC/C=N/c2ccc(OC(=O)Nc3ccc(Cc4ccc(NC(*)=O)cc4)cc3)cc2)cc1` (repeat unit), with 76.00 °C.
Then `*Oc1ccc(C(=O)Nc2ccc(Cc3ccc(NC(=O)c4ccc(Oc5ccc(C(=O)c6ccc(S(=O)(=O)c7ccc(C(=O)c8ccc(*)cc8)cc7)cc6)cc5)cc4)cc3)cc2)cc1` (repeat unit), with 240.00 °C; and `*Oc1ccc(C(=O)Nc2ccc(Cc3ccc(NC(=O)c4ccc(Oc5nc(*)nc(Sc6ccccc6)n5)cc4)cc3)cc2)cc1` (repeat unit), with 302.00 °C; and `*Oc1ccc(C(c2ccccc2)(c2ccccc2)c2ccc(Oc3ccc(C(=O)Nc4ccc(NC(=O)c5ccc(*)cc5)cc4)cc3)cc2)cc1` (repeat unit), with 254.00 °C.
Take `*Oc1ccc(NC(=O)c2ccc(C(=O)Nc3ccc(Oc4ccc(C5(c6ccc(*)cc6)CC6CCC5C6)cc4)cc3)cc2)cc1` (repeat unit): the glass transition temperature was determined as 281.00 °C.
Then `*Oc1ccc(NC(=O)c2ccc(C(c3ccc(C(=O)Nc4ccc(Oc5ccc(C6(c7ccc(*)cc7)C7CC8CC(C7)CC6C8)cc5)cc4)cc3)(C(F)(F)F)C(F)(F)F)cc2)cc1` (repeat unit), with 241.00 °C; and `*Oc1ccc(NC(=O)c2ccc(S(=O)(=O)c3ccc(C(=O)Nc4ccc(Oc5ccc(C(c6ccc(*)cc6)(C(F)(F)F)C(F)(F)F)cc5)cc4)cc3)cc2)cc1` (repeat unit), with 250.00 °C.
Then `*Oc1ccc(NC(=O)c2cccc(C(=O)Nc3ccc(Oc4ccc(C(c5ccc(*)cc5)(C(F)(F)F)C(F)(F)F)cc4)cc3)c2)cc1` (repeat unit), with 228.50 °C.
With `*Oc1ccc(Oc2ccc(C(=O)Nc3ccc(Cc4ccc(NC(=O)c5ccc(*)cc5)cc4)cc3)cc2)cc1` (repeat unit) the figure was 216.00 °C; with `*Oc1ccc(Oc2ccc(C(=O)Nc3ccc(Oc4ccc(-c5ccc(Oc6ccc(NC(=O)c7ccc(*)cc7)cc6)cc5)cc4)cc3)cc2)cc1-c1ccccc1` (repeat unit), 232.00 °C.
In the case of `*Oc1cccc(NC(=O)c2ccc(C(=O)Nc3ccc(Oc4ccc(C(=O)c5ccc(*)cc5)cc4)cc3)cc2)c1` (repeat unit), the glass transition temperature was determined as 126.00 °C.
`*c1ccc(-c2cc(-c3ccc(-c4ccccc4)cc3)cc(-c3ccc(N4C(=O)c5ccc(NC(=O)Nc6ccc(NC(=O)Nc7ccc8c(c7)C(=O)N(*)C8=O)cc6)cc5C4=O)cc3)n2)cc1` (repeat unit) yielded a glass transition temperature of 243.00 °C.
Then `*c1ccc(C(=O)Nc2ccc(NC(=O)c3ccc(Oc4ccc(-c5nn(*)c(=O)c6ccccc56)c5ccccc45)cc3)cc2)cc1` (repeat unit), with 347.50 °C; and `*c1ccc(C(=O)c2ccc(-n3nc(-c4ccccc4)c4cc(Oc5ccc6c(-c7ccccc7)nn(*)c(=O)c6c5)ccc4c3=O)cc2)cc1` (repeat unit), with 275.50 °C; and `*c1ccc(Cc2ccc(N3C(=O)CC(Nc4ccc(Cc5ccc(NC6CC(=O)N(*)C6=O)cc5)cc4)C3=O)cc2)cc1` (repeat unit), with 239.00 °C.
With `*c1ccc(Cc2ccc(N3C(=O)CC(Nc4ccc(N(c5ccc(Nc6ccc([N+](=O)[O-])cc6)cc5)c5ccc(NC6CC(=O)N(*)C6=O)cc5)cc4)C3=O)cc2)cc1` (repeat unit) the figure was 324.00 °C; with `*c1ccc(Oc2ccc(C(=O)c3ccc(C(=O)c4ccc(Oc5ccc(-c6cc(*)n(-c7ccccc7)n6)cc5)cc4)cc3)cc2)cc1` (repeat unit), 205.00 °C.
Then `*c1ccc(Oc2ccc(NC(=O)c3cc(C(=O)Nc4ccc(Oc5ccc(-c6nnc(*)o6)cc5)cc4)cc(N4C(=O)c5ccccc5C4=O)c3)cc2)cc1` (repeat unit), with 285.00 °C; and `*c1ccc2c(c1)C(=O)N(c1cccc(C(=O)Nc3ccc(Oc4ccc(C(c5ccc(Oc6ccc(NC(=O)c7cccc(N8C(=O)c9ccc(C(*)(C(F)(F)F)C(F)(F)F)cc9C8=O)c7)cc6)cc5)(C(F)(F)F)C(F)(F)F)cc4)cc3)c1)C2=O` (repeat unit), with 266.00 °C.
